Biological target: recombinant human ROCK-1 (Homo sapiens, UniProt Q13464)
Assay: In-vitro inhibitory activity on recombinant human ROCK-1 (IMAP fluorescence polarisation, fluorescein-labelled peptide)
Type: biochemical
Details: for IC50: read-out: ROCK-I pIC50 (converted)
Procedure: In-Vitro Determination of Inhibitory Activity of Compounds of the Invention on Recombinant Human ROCK-1
10 μl of a 0.1 ng/μl solution of recombinant human ROCK-1 in assay buffer containing 2 mM dithiothreitol, is then added to each well, yielding a final test compound concentration of 10 μM. Following a one hour incubation at room temperature in the dark, enzyme activity is detected by adding 60 μl of IMAP binding reagent (Molecular Devices) to each well.

recombinant human ROCK-1, sequence (Q13464 whole entry): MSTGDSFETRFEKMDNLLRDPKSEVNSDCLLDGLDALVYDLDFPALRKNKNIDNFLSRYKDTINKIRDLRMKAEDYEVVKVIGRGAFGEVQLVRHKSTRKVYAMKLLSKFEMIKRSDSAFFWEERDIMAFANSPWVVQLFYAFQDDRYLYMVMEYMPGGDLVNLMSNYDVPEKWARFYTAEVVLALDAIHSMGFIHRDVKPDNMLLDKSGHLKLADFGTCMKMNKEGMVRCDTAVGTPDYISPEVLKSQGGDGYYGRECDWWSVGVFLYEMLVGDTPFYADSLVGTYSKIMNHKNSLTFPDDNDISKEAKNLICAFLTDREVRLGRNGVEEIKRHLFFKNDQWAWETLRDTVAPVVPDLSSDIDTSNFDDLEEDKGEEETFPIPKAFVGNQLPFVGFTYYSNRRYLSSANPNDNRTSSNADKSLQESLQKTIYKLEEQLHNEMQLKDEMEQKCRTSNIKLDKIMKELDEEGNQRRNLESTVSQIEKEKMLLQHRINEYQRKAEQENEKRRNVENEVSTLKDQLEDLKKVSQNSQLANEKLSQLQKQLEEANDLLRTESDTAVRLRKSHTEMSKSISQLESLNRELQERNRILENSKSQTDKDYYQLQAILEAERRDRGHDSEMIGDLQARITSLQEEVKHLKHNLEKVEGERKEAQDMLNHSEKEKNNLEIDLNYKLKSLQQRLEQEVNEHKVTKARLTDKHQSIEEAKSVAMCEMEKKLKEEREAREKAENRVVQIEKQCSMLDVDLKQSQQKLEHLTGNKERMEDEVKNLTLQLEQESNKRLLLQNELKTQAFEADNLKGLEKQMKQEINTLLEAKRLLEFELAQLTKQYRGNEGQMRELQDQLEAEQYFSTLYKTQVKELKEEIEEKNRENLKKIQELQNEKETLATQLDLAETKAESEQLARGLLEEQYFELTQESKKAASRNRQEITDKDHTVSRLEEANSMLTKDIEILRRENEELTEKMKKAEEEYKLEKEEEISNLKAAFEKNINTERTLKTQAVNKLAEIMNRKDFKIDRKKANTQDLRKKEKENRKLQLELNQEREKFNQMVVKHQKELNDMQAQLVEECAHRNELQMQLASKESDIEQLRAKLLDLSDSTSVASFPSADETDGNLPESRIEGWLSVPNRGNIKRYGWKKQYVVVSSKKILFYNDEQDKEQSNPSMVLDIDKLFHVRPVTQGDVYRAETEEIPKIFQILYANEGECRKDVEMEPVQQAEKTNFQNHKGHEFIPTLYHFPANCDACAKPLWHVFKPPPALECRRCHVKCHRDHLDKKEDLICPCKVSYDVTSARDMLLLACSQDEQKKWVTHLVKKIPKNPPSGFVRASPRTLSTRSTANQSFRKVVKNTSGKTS

SMILES	IC50	ROCK-I pIC50 (recombinant human ROCK-1, dose response curve, IC50 = concentration causing 50% inhibition of the enzymatic activity)
COc1ccc(CN2CCCC(Oc3ccc4c(=O)[nH]ccc4c3)C2)cc1 (stereo not drawn) [Example 23D, 6-[1-(4-Methoxybenzyl)piperidin-3-yloxy]-2H-isoquinolin-1-one]	398 nM	–
Cc1cc2c(N)nccc2cc1OC1CCCN(Cc2ccccc2)C1 (stereo not drawn) [Example 19A]	794 nM	–
Nc1nccc2cc(SC3CCNCC3)ccc12 [Example 13C, 6-(Piperidin-4-ylsulfanyl)isoquinolin-1-ylamine]	631 nM	–
Nc1nccc2cc(OC3CCCN(CCOc4ccccc4)C3)ccc12 (stereo not drawn) [Example 21, 6-[1-(2-Phenoxyethyl)piperidin-3-yloxy]isoquinolin-1-ylamine]	200 nM	–
Nc1nccc2cc(S[C@H]3CCNC3)ccc12 [Example 13A, (S)-6-(Pyrrolidin-3-ylsulfanyl)isoquinolin-1-ylamine]	631 nM	–
Nc1nccc2cc(OC3CCCN(Cc4ccc[nH]4)C3)ccc12 (stereo not drawn) [Example 7F, 6-[1-(1H-Pyrrol-2-ylmethyl)piperidin-3-yloxy]isoquinolin-1-ylamine]	126 nM	–
CC(c1ccccc1)N1CCC[C@H](Oc2ccc3c(N)nccc3c2)C1 (stereo partly drawn) [Example 21G, (S)-6-[1-(1-Phenylethyl)piperidin-3-yloxy]isoquinolin-1-ylamine]	200 nM	–
Nc1nccc2cc(S[C@@H]3CCNC3)ccc12 [Example 13B, (R)-6-(Pyrrolidin-3-ylsulfanyl)isoquinolin-1-ylamine]	631 nM	–
Cc1ccc(CN2CCC[C@H](Oc3ccc4c(N)nccc4c3)C2)cc1 [Example 8B, (S)-6-[1-(4-Methylbenzyl)piperidin-3-yloxy]isoquinolin-1-ylamine]	158 nM	–
Nc1nccc2cc(OC3CCCN(Cc4cccs4)C3)ccc12 (stereo not drawn) [Example 7G, 6-(1-Thiophen-2-ylmethylpiperidin-3-yloxy)isoquinolin-1-ylamine]	251 nM	–
Nc1nccc2cc(SC3CCCNC3)ccc12 (stereo not drawn) [Example 12, 6-(Piperidin-3-ylsulfanyl)isoquinolin-1-ylamine]	501 nM	–

Results, then the compound that gave them:

IC50	ROCK-I pIC50 (recombinant human ROCK-1, dose response curve, IC50 = concentration causing 50% inhibition of the enzymatic activity)	SMILES
316 nM	–	O=c1[nH]cc(Br)c2cc(O[C@H]3CCCNC3)ccc12 [Example 29]
501 nM	–	O=c1[nH]ccc2cc(OC3CCCN(CC4CCCCC4)C3)ccc12 (stereo not drawn) [Example 33C, 6-(1-Cyclohexylmethylpiperidin-3-yloxy)-2H-isoquinolin-1-one]
631 nM	–	O=c1[nH]ccc2cc(O[C@H]3CCCN(CCOc4ccccc4)C3)ccc12 [Example 32C, (S)-6-[1-(2-Phenoxyethyl)piperidin-3-yloxy]-2H-isoquinolin-1-one]
794 nM	–	O=c1[nH]ccc2cc(OC3CCN(CCCO)CC3)ccc12 [Example 31C, 6-[1-(3-Hydroxypropyl)piperidin-4-yloxy]-2H-isoquinolin-1-one]
–	6.1	Cc1ccc(CN2CCC(Oc3ccc4c(=O)[nH]ccc4c3)CC2)cc1 [Example 30A, 6-[1-(4-Methylbenzyl)piperidin-4-yloxy]-2H-isoquinolin-1-one]
251 nM	–	O=c1[nH]ccc2cc(O[C@@H]3CCCN(CCOc4ccccc4)C3)ccc12 [Example 32E, (R)-6-[1-(2-Phenoxyethyl)piperidin-3-yloxy]-2H-isoquinolin-1-one]
501 nM	–	O=c1[nH]ccc2cc(OC3CCN(Cc4ccco4)CC3)ccc12 [Example 30E, 6-(1-Furan-2-ylmethylpiperidin-4-yloxy)-2H-isoquinolin-1-one]
794 nM	–	O=c1[nH]ccc2cc(OC3CCN(CCO)CC3)ccc12 [Example 31E, 6-[1-(2-Hydroxyethyl)piperidin-4-yloxy]-2H-isoquinolin-1-one]
316 nM	–	O=c1[nH]ccc2cc(OC3CCN(Cc4ccc[nH]4)CC3)ccc12 [Example 31G, 6-[1-(1 H-Pyrrol-2-ylmethyl)piperidin-4-yloxy]-2H-isoquinolin-1-one]
631 nM	–	CN1CCC(Oc2ccc3c(=O)[nH]ccc3c2)CC1 [Example 30G, 6-(1-Methylpiperidin-4-yloxy)-2H-isoquinolin-1-one]
398 nM	–	COc1cccc(CN2CCC(Oc3ccc4c(=O)[nH]ccc4c3)CC2)c1 [Example 31F, 6-[1-(3-Methoxybenzyl)piperidin-4-yloxy]-2H-isoquinolin-1-one]
200 nM	–	O=c1[nH]ccc2cc(SC3CCNCC3)ccc12 [Example 25, 6-(Piperidin4-ylsulfanyl)-2H-isoquinolin-1-one]
501 nM	–	O=C(CN1CCC[C@H](Oc2ccc3c(=O)[nH]ccc3c2)C1)c1ccccc1 [Example 32B, (S)-6-[1-(2-Oxo-2-phenylethyl)piperidin-3-yloxy]-2H-isoquinolin-1-one]

Source: patent US7618985B2 (N.V. Organon, priority 2005, dated 2009)
